In US5849690A, “Anti-aggregatory peptides” (SmithKline Beecham Corporation, priority 1992, dated 1998):
Positions of bridges follow the written chain, without caps; N, C: chain ends. Non-standard residues stand in square brackets, D forms with d. Residues, ends and D or L forms follow the SMILES beside them.

biological target: T1, Platelet rich plasma, PRP (Canis lupus familiaris, UniProt A0A8I3N5G5+A0A8I3PMU9); experiment: Inhibition of platelet aggregation, PRP/ADP; format: cell-based; conditions: dog platelet rich plasma, 2 μM ADP, peptide added 3 min. prior to agonist; read-out: Antiaggregatory Activity IC50, μM PRP/ADP
T1 sequence (A0A8I3N5G5 1-1047): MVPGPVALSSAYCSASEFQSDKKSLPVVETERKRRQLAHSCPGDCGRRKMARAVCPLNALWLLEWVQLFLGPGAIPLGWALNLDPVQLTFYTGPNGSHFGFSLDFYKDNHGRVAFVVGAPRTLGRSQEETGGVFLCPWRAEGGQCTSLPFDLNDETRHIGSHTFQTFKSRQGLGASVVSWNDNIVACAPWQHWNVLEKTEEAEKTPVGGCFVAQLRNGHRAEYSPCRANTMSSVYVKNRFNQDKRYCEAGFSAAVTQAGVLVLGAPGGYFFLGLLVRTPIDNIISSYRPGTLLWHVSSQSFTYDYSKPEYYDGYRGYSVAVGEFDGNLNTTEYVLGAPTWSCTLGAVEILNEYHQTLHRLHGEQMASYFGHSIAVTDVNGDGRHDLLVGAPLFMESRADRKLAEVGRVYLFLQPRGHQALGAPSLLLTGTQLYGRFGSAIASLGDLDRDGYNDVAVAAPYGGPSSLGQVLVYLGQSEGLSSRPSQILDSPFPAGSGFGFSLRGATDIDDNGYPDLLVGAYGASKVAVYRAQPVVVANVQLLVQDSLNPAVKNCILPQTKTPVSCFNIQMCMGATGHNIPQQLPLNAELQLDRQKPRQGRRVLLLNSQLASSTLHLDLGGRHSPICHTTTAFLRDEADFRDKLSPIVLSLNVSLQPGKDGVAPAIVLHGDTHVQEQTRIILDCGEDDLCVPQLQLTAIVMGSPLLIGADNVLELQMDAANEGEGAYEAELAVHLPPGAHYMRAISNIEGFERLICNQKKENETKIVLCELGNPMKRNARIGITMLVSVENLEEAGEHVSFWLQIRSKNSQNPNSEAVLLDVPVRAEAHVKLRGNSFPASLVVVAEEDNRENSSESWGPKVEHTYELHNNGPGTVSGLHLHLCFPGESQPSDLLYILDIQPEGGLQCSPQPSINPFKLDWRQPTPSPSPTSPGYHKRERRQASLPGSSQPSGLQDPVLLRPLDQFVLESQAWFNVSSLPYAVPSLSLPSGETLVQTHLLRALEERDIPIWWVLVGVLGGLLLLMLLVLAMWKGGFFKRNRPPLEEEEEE
T1 sequence (A0A8I3PMU9 1-919): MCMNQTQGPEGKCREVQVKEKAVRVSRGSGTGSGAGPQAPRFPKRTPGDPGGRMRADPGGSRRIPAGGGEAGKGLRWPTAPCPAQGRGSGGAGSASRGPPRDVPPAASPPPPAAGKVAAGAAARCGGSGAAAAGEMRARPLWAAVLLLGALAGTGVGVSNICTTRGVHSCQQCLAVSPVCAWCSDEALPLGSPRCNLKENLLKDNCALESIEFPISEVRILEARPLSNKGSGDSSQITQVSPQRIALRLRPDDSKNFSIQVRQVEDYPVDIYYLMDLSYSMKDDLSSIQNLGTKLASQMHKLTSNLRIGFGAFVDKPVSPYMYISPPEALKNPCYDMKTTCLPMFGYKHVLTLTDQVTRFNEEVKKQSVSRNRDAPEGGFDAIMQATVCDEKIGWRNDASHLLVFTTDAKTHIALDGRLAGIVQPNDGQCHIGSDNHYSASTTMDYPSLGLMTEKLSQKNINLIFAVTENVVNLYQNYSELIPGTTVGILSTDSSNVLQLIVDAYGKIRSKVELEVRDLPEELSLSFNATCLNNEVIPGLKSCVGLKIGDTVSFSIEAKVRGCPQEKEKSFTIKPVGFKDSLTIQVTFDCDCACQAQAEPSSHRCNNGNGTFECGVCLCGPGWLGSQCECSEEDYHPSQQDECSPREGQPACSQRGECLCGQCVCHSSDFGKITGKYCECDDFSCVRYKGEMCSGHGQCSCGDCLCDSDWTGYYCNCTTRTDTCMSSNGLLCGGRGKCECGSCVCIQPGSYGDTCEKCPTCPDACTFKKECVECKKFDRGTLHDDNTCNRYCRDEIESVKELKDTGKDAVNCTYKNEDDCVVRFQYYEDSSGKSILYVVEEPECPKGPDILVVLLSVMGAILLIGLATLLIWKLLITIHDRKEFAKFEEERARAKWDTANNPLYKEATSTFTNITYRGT
Experimental: Blood was collected (citrated to prevent coagulation) from, naive, adult mongrel dogs. Platelet rich plasma, PRP, was prepared by centrifugation at 150×g for 10 min. at room temperature. Washed platelets were prepared by centrifuging PRP at 800×g for 10 min. The cell pellet thus obtained was washed twice in Tyrode's buffer (pH 6.5) without Ca^2+ and resuspended in Tyrode's buffer (pH 7.4) containing 1.8 mM Ca^2+ at […]. Peptides were added 3 min. prior to the agonist in all assays of platelet aggregation. Final agonist concentrations were 0.1 unit/ml thrombin and 2 μM ADP (Sigma). Aggregation was monitored in a Chrono-Log Lumi-Aggregometer. Light transmittance 5 min. after addition of the agonist was used to calculate percent aggregation according to the formula % aggregation=[(90-CR).div.(90-10)]×100, where CR is the chart reading, 90 is the baseline, and 10 is the PRP blank reading. IC50 's were determined by plotting [% inhibition of aggregation] vs. [concentration of peptide]. Peptides were assayed at 200 μM and diluted sequentially by a factor of 2 to establish a suitable dose response curve.

Compound | IC50 [µM]
CC(=O)N[C@@H](CCCN=C(N)N)C(=O)NCC(=O)N[C@@H](CC(=O)O)C(=O)N[C@H](C(N)=O)C(C)C [Example 31, N^α -Ac-Arg-Gly-Asp-Val-NH2] (Ac-RGDV-NH2) | 55.5
CC(=O)N[C@H]1CSSC(C)(C)[C@H](C(N)=O)NC(=O)[C@H](CC(=O)O)NC(=O)CNC(=O)[C@H](CCCNC(=N)N)NC1=O [Example 11, N^α -Ac-Cyclo(S,S)Cys-Arg-Gly-Asp-D-Pen-NH2] (HELM PEPTIDE1{[ac].C.R.G.D.[CC(C)(S[*:3])[C@@H](N[*:1])C(=O)[*:2]].[am]}$PEPTIDE1,PEPTIDE1,2:R3-6:R3$$$V2.0) | 20.3
CC(=O)N[C@H]1CSSC(C)(C)[C@@H](C(N)=O)NC(=O)[C@H](CC(=O)O)NC(=O)CNC(=O)[C@H](CCCCN)NC1=O [Example 12, N^α -Ac-Cyclo(S,S)Cys-Lys-Gly-Asp-Pen-NH2] (HELM PEPTIDE1{[ac].C.K.G.D.[Pen].[am]}$PEPTIDE1,PEPTIDE1,2:R3-6:R3$$$V2.0) | 55.3
Gly-MeArg-Gly-Asp-Ser-NH2 (RGDS; N-terminal Gly-Me; C-terminal amide; printed: Arg-Gly-Asp-Ser-) [Example 39] | 12
CCNC(=O)[C@H]1NC(=O)[C@H](CC(=O)O)NC(=O)CNC(=O)[C@H](CCCNC(=N)N)NC(=O)[C@@H](NC(C)=O)CSSC1(C)C [Example 16, N^α -Ac-Cyclo(S,S)Cys-Arg-Gly-Asp-Pen-NHEt] (HELM PEPTIDE1{[ac].C.R.G.D.[Pen].[CCN[*:1]]}$PEPTIDE1,PEPTIDE1,2:R3-6:R3$$$V2.0) | 9.5
CC(=O)N[C@H]1CSSC[C@@H](C(N)=O)NC(=O)[C@H](CO)NC(=O)[C@H](CC(=O)O)NC(=O)CNC(=O)[C@H](CCCNC(=N)N)NC1=O [Example 3, N^α -Ac-Cyclo(S,S) Cys-Arg-Gly-Asp-Ser-Cys-NH2] (HELM PEPTIDE1{[ac].C.R.G.D.S.C.[am]}$PEPTIDE1,PEPTIDE1,2:R3-7:R3$$$V2.0) | 32.7
CCNC(=O)[C@H](CO)NC(=O)[C@H](CC(=O)O)NC(=O)CNC(=O)[C@H](CCCN=C(N)N)NC(C)=O [Example 15, N^α -Ac-Arg-Gly-Asp-Ser-NHEt] (HELM PEPTIDE1{[ac].R.G.D.S.[CCN[*:1]]}$$$$V2.0) | > 200
CC(=O)N[C@H]1CSSC(C)(C)[C@@H](C(N)=O)NC(=O)[C@H](CC(=O)O)NC(=O)CNC(=O)[C@H](CCCNC(=N)N)NC1=O [Example 10, N^α -Ac-Cyclo(S,S)Cys-Arg-Gly-Asp-Pen-NH2] (HELM PEPTIDE1{[ac].C.R.G.D.[Pen].[am]}$PEPTIDE1,PEPTIDE1,2:R3-6:R3$$$V2.0) | 4.12
CC(=O)N[C@H]1CSSC[C@@H](C(N)=O)NC(=O)[C@H](Cc2ccc(O)cc2)NC(=O)[C@H](CC(=O)O)NC(=O)CNC(=O)[C@H](CCCNC(=N)N)N(C)C1=O [Example 18, N^α -Ac-Cyclo(S,S)Cys-MeArg-Gly-Asp-Tyr-Cys-NH2] (HELM PEPTIDE1{[ac].C.[meR].G.D.Y.C.[am]}$PEPTIDE1,PEPTIDE1,2:R3-7:R3$$$V2.0) | 1.49
CCN=C(NCC)NCCC[C@@H]1NC(=O)[C@@H](NC(C)=O)CSSC(C)(C)[C@@H](C(N)=O)NC(=O)[C@H](CC(=O)O)NC(=O)CNC1=O [Example 24, N^α -Ac-Cyclo(S,S)Cys-(Et2)Arg-Gly-Asp-Pen-NH2] (HELM PEPTIDE1{[ac].C.[CCN=C(NCC)NCCC[C@H](N[*:1])C(=O)[*:2]].G.D.[Pen].[am]}$PEPTIDE1,PEPTIDE1,2:R3-6:R3$$$V2.0) | 81.7
CC(=O)N[C@H]1CSSC(C)(C)[C@@H](C(N)=O)NC(=O)[C@H](CC(=O)O)NC(=O)CNC(=O)[C@H](CCCCNC(=N)N)NC1=O [Example 13, N^α -Ac-Cyclo(S,S)Cys-HArg-Gly-Asp-Pen-NH2] (HELM PEPTIDE1{[ac].C.[N=C(N)NCCCC[C@H](N[*:1])C(=O)[*:2]].G.D.[Pen].[am]}$PEPTIDE1,PEPTIDE1,2:R3-6:R3$$$V2.0) | 3.85
CC(=O)N[C@@H](CCCCNC(=N)N)C(=O)NCC(=O)N[C@@H](CC(=O)O)C(=O)N[C@@H](CO)C(N)=O [Example 36, Ac-HArg-Gly-Asp-Ser-NH2] (HELM PEPTIDE1{[ac].[N=C(N)NCCCC[C@H](N[*:1])C(=O)[*:2]].G.D.S.[am]}$$$$V2.0) | 68.2
CC(=O)N[C@@H](CCCN=C(N)N)C(=O)NCC(=O)N[C@@H](CC(=O)O)C(=O)NCCc1ccccc1 [Example 34, N^α -Ac-Arg-Gly-Asp-NH-CH -CH2 -C6 H5] | 75.9
CC(=O)N[C@H]1CSSC(C)(C)[C@@H](C(N)=O)NC(=O)[C@H](CC(=O)O)NC(=O)CNC(=O)[C@@H](CCCNC(=N)N)NC1=O [Example 17, N^α -Ac-Cyclo(S,S)Cys-D-Arg-Gly-Asp-Pen-NH2] (HELM PEPTIDE1{[ac].C.[dR].G.D.[Pen].[am]}$PEPTIDE1,PEPTIDE1,2:R3-6:R3$$$V2.0) | 4.1
CN(C=O)[C@@H](CCCNC(=N)N)C(=O)NCC(=O)N[C@@H](CC(=O)O)C(=O)N[C@@H](CO)C(N)=O [Example 38, N^α -Formyl-MeArg-Gly-Asp-Ser-NH2] (HELM PEPTIDE1{[O=C[*:2]].[meR].G.D.S.[am]}$$$$V2.0) | 6.9
N^α -Ac-Cyclo(S,S)Cys-MeArg-Gly-Asp-Cys-NH2 (Ac-C[MeArg]GDC-NH2; disulfide N-5) [Example 8] | 0.91
CC(=O)N[C@H]1CSSC(C)(C)[C@@H](C(N)=O)NC(=O)[C@H](CO)NC(=O)[C@H](CC(=O)O)NC(=O)CNC(=O)[C@H](CCCNC(=N)N)N(C)C1=O [Example 5, N^α -Ac-Cyclo(S,S)Cys-MeArg-Gly-Asp-Ser-Pen-NH2] (HELM PEPTIDE1{[ac].C.[meR].G.D.S.[Pen].[am]}$PEPTIDE1,PEPTIDE1,2:R3-7:R3$$$V2.0) | 1.3
Ac-RRGDF-NH2 [Example 33, N^α -Ac-Arg-Arg-Gly-Asp-Phe-NH2] | 113
CC(=O)N[C@H]1CSSC(C)(C)[C@@H](C(N)=O)NC(=O)[C@H](CC(=O)O)NC(=O)CNC(=O)[C@H](CCCNC(=N)N)N(C)C1=O [Example 14, N^α -Ac-Cyclo(S,S)Cys-MeArg-Gly-Asp-Pen-NH2] (HELM PEPTIDE1{[ac].C.[meR].G.D.[Pen].[am]}$PEPTIDE1,PEPTIDE1,2:R3-6:R3$$$V2.0) | 0.26
CN[C@@H](CCCNC(=N)N)C(=O)NCC(=O)N[C@@H](CC(=O)O)C(=O)N[C@@H](CO)C(N)=O [Example 37, N^α -MeArg-Gly-Asp-Ser-NH2] (HELM PEPTIDE1{[meR].G.D.S.[am]}$$$$V2.0) | 66.3
